In the oligonucleotide strings, read from the 5' end, every base follows the letter of its sugar. An asterisk marks phosphorothioate; unmarked linkages are phosphodiester. Other units and linkages are bracketed, terminal groups are in braces. A string of capitals states the bases alone. e = 2'-O-(2-methoxyethyl) (MOE); [5mC] = 5-methylcytosine; d = 2'-deoxy (DNA)
Columns and labels:
[1] = Tolerability in CD1 mice: body and organ weight (Example 25); type: in vivo; conditions: 50 mg/kg s.c. twice per week for 6 weeks
Factor XI mRNA [2] = experiment: Colitis Study F: Factor XI mRNA in liver and colon; type: in vivo, Swiss Webb mice; conditions: DSS-treated mice, 50 mg/kg, percent of the PBS treated control
Description: (§1) In a first group of 8 Swiss Webb mice, 50 mg/kg of ISIS 404071 was injected subcutaneously twice a week for 3 weeks. Two control groups of 8 mice each were injected with PBS twice a week for 3 weeks. After the oligonucleotide treatment, 4% DSS in water was administered ad libitum for 7 days to the experimental group and one PBS control group. Mice were sacrificed at the end of the study on day 7 after DSS was administered.
The effect of antisense inhibition in the liver and colon levels of Factor XI mRNA after treatment by ISIS 404071 is presented in Table 48 (as a percent of the PBS treated control).

[3] = test system: IL-1, IL-6, IL-10, IL-12, IL-17, TNF-α, GATA-3; experiment: Colitis Study F: cytokine and GATA-3 mRNA levels in colon; type: in vivo, Swiss Webb mice; conditions: day 7
Description: as §1
The mRNA levels of cytokines IL-1, IL-6, IL-10, IL-12, IL-17 and TNF-α were measured in the colon of the mice groups at the end of the study on day 7 after DSS was administered. Colons were homogenized on ice in PBS supplemented with protease inhibitors (Sigma, St. Louis, Mo.) and extracted with rotation at 4° C. for 1 hour. After removal of insoluble material by centrifugation, colon homogenates were used for the cytokine analysis by multiplex ELISA (Meso Scale Discovery, Gaithersburg, Md.) according to the manufacture's protocol. Cytokine levels in colon extracts were normalized to the protein concentration measured by protein assay kit (BioRad, Hercules, Calif.). The levels of pro-inflammatory cytokines, including Th1 cytokines IL-1 and IL-6, elevated by DSS administration were decreased by treatment with ISIS 404071.

[4] = test system: soluble CD40 ligand (CD40L); experiment: Colitis Study D: CD40L levels; type: in vivo, Swiss Webb mice; conditions: for CD40L levels in colon: DSS-treated mice
Description: In a first group of 8 Swiss Webb mice, 10 mg/kg of ISIS 404071 was injected subcutaneously twice a week for 3 weeks. In a second group of 8 Swiss Webb mice, 20 mg/kg of ISIS 404057 was subcutaneously injected twice a week for 3 weeks. In a third control group of 8 Swiss Webb mice, 40 mg/kg of ISISI 404057 was injected subcutaneously twice a week for 3 weeks. Two control groups of 8 mice each were injected with PBS twice a week for 3 weeks. After the oligonucleotide treatment, 4% DSS in water was administered ad libitum for 7 days to all the experimental groups and one PBS control group.
Plasma levels of soluble CD40 ligand (CD40L) are known to be elevated in cases of inflammatory bowel disease (Ludwiczek, O. et al., Int. J. Colorectal Disease. 2003. 18: 142-147) and may be considered a marker of intestinal inflammation. […]

[5] = test system: DSS-induced colitis model; experiment: Colitis Study E: weight change, colon length, stool analysis; type: in vivo, Swiss Webb mice; conditions: for Colon length / Weight change / Diarrhea score: DSS-treated mice; for Colon length / Weight change: 40 mpk; for Diarrhea score: day 7, 40 mpk
Description: (§2) Two groups 8 Swiss Webb mice were dosed with 40 mg/kg of ISIS 404071 injected subcutaneously twice a week for 3 weeks. Two control groups of 8 Swiss Webb mice were dosed with PBS subcutaneously twice a week for 3 weeks. Both the ASO treated groups and one of the control groups were then given 4% DSS in distilled water for 7 days ad libitum. One of the ASO and DSS treated groups was also given intravenous injections of 20 μg of recombinant human Factor XI protein (Haematologic Technologies Inc.) for 7 consecutive days, starting the day before DSS treatment. Mice were sacrificed at the end of the study on day 7 after DSS was administered.
Mice in all groups were weighed at day 0 and at the end of the study. […] Mice were sacrificed at the end of the study on day 7 after DSS was administered and their colon lengths were measured.

[6] = test system: DSS-induced colitis model; experiment: Colitis Study F: body weight, stool scores, colon length and weight; type: in vivo, Swiss Webb mice
Description: as §1
Mice in all groups were weighed at day 0 and daily for 7 days after administration of DSS. Mice were sacrificed at the end of the study on day 7 after DSS was administered and their colon lengths and weight were measured as shown in Table 45.

[7] = Colitis Study F: plasma ALT, AST, BUN, CREAT, CHOL, TBIL; type: in vivo, Swiss Webb mice; conditions: DSS-treated mice, 50 mg/kg s.c. twice a week for 3 weeks
Description: as §1
Plasma levels of aminotransferases (ALT and AST), blood urea nitrogen (BUN), creatinine (CREAT), cholesterol (CHOL) and total bilirubin (TBIL) were measured after treatment and are shown in Table 47.

Factor XI mRNA [8] = experiment: Colitis Study E: Factor XI mRNA levels; type: in vivo, Swiss Webb mice; conditions: compared to untreated PBS control; for % inhibition of Factor XI mRNA levels: DSS-treated mice, 40 mpk
Description: as §2

[9] = plus human recombinant FXI 20 ug/mouse/day
[10] = DSS-treated mice, 50 mg/kg, day 7

In the case of “ISIS 416850: gapmer of Table 8 (antisense eT*eG*e[5mC]*eA*e[5mC]*dA*dG*dT*dT*dT*d[5mC]*dT*dG*dG*d[5mC]*eA*eG*eG*e[5mC]*e[5mC])”, the “Body weight (increase over PBS control weight before start of treatment)” value [1] is reported as 11 g, the “Kidney weight as percentage of body weight” value ([1]; end of study) is reported as 1.5% and the “Liver weight as percentage of body weight” value ([1]; end of study) is reported as 6%. For the same substance, the “Spleen weight as percentage of body weight” value ([1]; end of study) was 0.4%.
In the case of “TGGTAATCCACTTTCAGAGG (eT*eG*eG*eT*eA*dA*dT*d[5mC]*d[5mC]*dA*d[5mC]*dT*dT*dT*d[5mC]*eA*eG*eA*eG*eG) [ISIS 404071, 5-10-5 MOE gapmer targeting murine Factor XI, target start site 869]”, the “Factor XI mRNA levels in the Colon” value (Factor XI mRNA [2]) is reported as 148 % of normal, the “Factor XI mRNA levels in the Liver” value (Factor XI mRNA [2]) is reported as 24 % of normal and the “pro-inflammatory cytokines incl. IL-1 and IL-6 in colon (in words)” value ([3]; Colitis Study F) is reported as “decreased”. The “GATA-3 mRNA level in the colon” value ([3]; DSS-treated mice, 50 mg/kg) was 359 % of PBS treated animals, the “IL-1 mRNA level in the colon” value ([3]; DSS-treated mice, 50 mg/kg) was 1189 % of PBS treated animals and the “IL-6 mRNA level in the colon” value ([3]; DSS-treated mice, 50 mg/kg) was 1056 % of PBS treated animals. The “IL-10 mRNA level in the colon” value ([3]; DSS-treated mice, 50 mg/kg) was 202 % of PBS treated animals, the “IL-12 mRNA level in the colon” value ([3]; DSS-treated mice, 50 mg/kg) was 234 % of PBS treated animals and the “IL-17 mRNA level in the colon” value ([3]; DSS-treated mice, 50 mg/kg) was 787 % of PBS treated animals. The “TNF-α mRNA level in the colon” value ([3]; DSS-treated mice, 50 mg/kg) was 1127 % of PBS treated animals, the “CD40L levels (in words)” value ([4]; Colitis Study D) was “decreased” and the “CD40L levels in colon” value ([4]; 10 mpk) was 0.19 ng/mg protein. The “CD40L levels in colon” value ([4]; 20 mpk) was 0.26 ng/mg protein, the “CD40L levels in colon” value ([4]; 40 mpk) was 0.39 ng/mg protein and the “colon length (in words)” value ([5]; Colitis Study E, day 7) was “increase in colon length”. The “stool softness/diarrhea (in words)” value ([5]; Colitis Study E, day 7) was “amelioration of diarrhea”, the Colon length ([5]; no human recombinant FXI) was 9.9 cm and the Weight change ([5]; no human recombinant FXI) was “+1.8%”. For the same substance, the Colon length [5, 9] was 7.3 cm, the Weight change [5, 9] was “+0.3%” and the Diarrhea score ([5]; no human recombinant FXI) was 0.5. For the same substance, the Diarrhea score [5, 9] was 2.0, the “body weight (in words)” value ([6]; Colitis Study F, 50 mg/kg, compared to placebo) was “did not significantly affect body weight” and the “Body weight (day 0)” value ([6]; DSS-treated mice, 50 mg/kg s.c. twice a week for 3 weeks, day 0) was 28 grams. The “Body weight (day 7)” value ([6]; DSS-treated mice, 50 mg/kg s.c. twice a week for 3 weeks, day 7) was 24.7 grams, the Stool score ([6]; DSS-treated mice, 50 mg/kg, Day 3) was 0 and the Stool score ([6]; DSS-treated mice, 50 mg/kg, Day 4) was 0.25. It also gave a Stool score ([6]; DSS-treated mice, 50 mg/kg, Day 5) of 1, a Stool score ([6]; DSS-treated mice, 50 mg/kg, Day 6) of 1 and a Stool score ([6]; DSS-treated mice, 50 mg/kg, Day 7) of 1. The Colon length [6, 10] was 7.8 cm, the Colon weight [6, 10] was 339.3 mg and the “Plasma ALT” value [7] was 133.6 U/L. For the same substance, the “Plasma AST” value [7] was 339.3 U/L, the “Plasma BUN” value [7] was 29.5 mg/dL and the “Plasma CHOL” value [7] was 170.3 mg/dL. The “Plasma TBIL” value [7] was 0.7 mg/dL, the “Factor XI levels (in words)” value (Factor XI mRNA [8]; Colitis Study E, 40 mg/kg) was “significantly decreased” and the “% inhibition of Factor XI mRNA levels” value (Factor XI mRNA [8]; no human recombinant FXI) was 82%. The “% inhibition of Factor XI mRNA levels” value (Factor XI mRNA [8]; [9]) was 83%.
